Source: ChEMBL document CHEMBL1127999, “Diphenylborinic acid is a strong inhibitor of serine proteases” (Bioorg Med Chem Lett, 1994)

Legend:
Chymotrypsinogen A = Chymotrypsinogen A (Bos taurus, UniProt P00766)
Description: Compound was tested for the inhibition of chymotrypsin

Serine protease 1 = target: T1, Serine protease 1 (Bos taurus, UniProt P00760)
T1 sequence (P00760 whole entry): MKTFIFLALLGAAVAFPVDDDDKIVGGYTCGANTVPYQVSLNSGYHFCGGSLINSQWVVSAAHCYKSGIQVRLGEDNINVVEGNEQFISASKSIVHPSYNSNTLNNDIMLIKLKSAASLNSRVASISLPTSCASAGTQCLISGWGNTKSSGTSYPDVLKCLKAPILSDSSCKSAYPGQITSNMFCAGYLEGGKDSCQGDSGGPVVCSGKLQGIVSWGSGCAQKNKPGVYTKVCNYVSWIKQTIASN
Description: Compound was tested for the inhibition of trypsin

Description for physchem: Dissociation constant of compound was determined

Row | Ki (Chymotrypsinogen A) | pKa (physchem) | Ki (Serine protease 1) | pKa | Compound
1 | 0.03 mM | 8.1 | – | – | CB(O)c1ccccc1 [PHENYL METHYL BORINIC ACID]
2 | – | – | 10.2 mM | 8.85 | OB(O)c1ccccc1 [PHENYLBORONIC ACID]
